Experimental data published in patent publication US20140017673A1, “METHOD FOR ENUMERATING EUKARYOTIC CELL MICRONUCLEI WITH AN EMPHASIS ON SIMULTANEOUSLY ACQUIRING CYTOTOXICITY AND MODE OF ACTION INFORMATION” (priority 2012, published 2014).
Where a name gives a salt, the structure may show the parent alone. Read-outs that look alike come from different tables or passages of the source. Each block holds one molecule with its values, some of them ahead of it.

Tested on: TK6 cells
Conditions: for Avg. % EMA+ / Avg. % M / Avg. % MN / Avg. % RS / Avg. M as % G2/M: human

Structure (SMILES): NC(=O)NO [HU, Hydroxyurea]
- Avg. % EMA+ (0.5 μg/ml): 2.4%
- Avg. % M (0.5 μg/ml): 1.6%
- Avg. % MN (0.5 μg/ml): 0.4%
- Avg. % RS (0.5 μg/ml): 100.9%
- Avg. M as % G2/M (0.5 μg/ml): 5.4%
- Avg. % EMA+ (0.9 μg/ml): 2.3%
- Avg. % M (0.9 μg/ml): 1.6%
- Avg. % MN (0.9 μg/ml): 0.5%
- Avg. % RS (0.9 μg/ml): 97.1%
- Avg. M as % G2/M (0.9 μg/ml): 5.9%
- Avg. % EMA+ (3.8 μg/ml): 5.8%
- Avg. % M (3.8 μg/ml): 1.7%
- Avg. % MN (3.8 μg/ml): 0.9%
- Avg. % RS (3.8 μg/ml): 65.7%
- Avg. M as % G2/M (3.8 μg/ml): 4.7%
- Avg. % EMA+ (7.5 μg/ml): 13.7%
- Avg. % M (7.5 μg/ml): 1.0%
- Avg. % MN (7.5 μg/ml): 1.9%
- Avg. % RS (7.5 μg/ml): 44.3%
- Avg. M as % G2/M (7.5 μg/ml): 3.9%

Structure (SMILES): COC1=CC(=O)C[C@@H](C)[C@]12Oc1c(Cl)c(OC)cc(OC)c1C2=O [Griseofulvin]
- Avg. % EMA+ (0.375 μg/ml): 3.0%
- Avg. % M (0.375 μg/ml): 1.9%
- Avg. % RS (0.375 μg/ml): 96.6%
- Avg. M as % G2/M (0.375 μg/ml): 6.0%
- Avg. % EMA+ (0.75 μg/ml): 2.6%
- Avg. % M (0.75 μg/ml): 1.8%
- Avg. % RS (0.75 μg/ml): 99.5%
- Avg. M as % G2/M (0.75 μg/ml): 5.8%
- Avg. % EMA+ (3 μg/ml): 8.2%
- Avg. % M (3 μg/ml): 3.0%
- Avg. % RS (3 μg/ml): 64.9%
- Avg. M as % G2/M (3 μg/ml): 19.4%
- Avg. % EMA+ (6 μg/ml): 13.5%
- Avg. % M (6 μg/ml): 5.8%
- Avg. % RS (6 μg/ml): 46.6%
- Avg. M as % G2/M (6 μg/ml): 26.4%

Structure (SMILES): COc1cc2c(c(OC)c1OC)-c1ccc(OC)c(=O)cc1[C@@H](NC(C)=O)CC2 [Colchicine]
- cytotoxicity (dose-dependent reductions to RS), FIG. 3: cytotoxic
- genotoxicity (increased MN observed), FIG. 3 dose-response: genotoxic

Second part, the molecule after the results:

- Avg. % EMA+ (0.125 μg/ml): 3.3%
- Avg. % M (0.125 μg/ml): 1.9%
- Avg. % MN (0.125 μg/ml): 0.6%
- Avg. % RS (0.125 μg/ml): 91.9%
- Avg. M as % G2/M (0.125 μg/ml): 7.1%
- Avg. % EMA+ (0.5 μg/ml): 5.1%
- Avg. % M (0.5 μg/ml): 2.1%
- Avg. % MN (0.5 μg/ml): 2.7%
- Avg. % RS (0.5 μg/ml): 72.1%
- Avg. M as % G2/M (0.5 μg/ml): 8.4%
- Avg. % EMA+ (1 μg/ml): 8.2%
- Avg. % M (1 μg/ml): 3.4%
- Avg. % MN (1 μg/ml): 7.9%
- Avg. % RS (1 μg/ml): 53.1%
- Avg. M as % G2/M (1 μg/ml): 13.5%
Structure (SMILES): CC[C@]1(O)C[C@H]2CN(CCc3c([nH]c4ccccc34)[C@@](C(=O)OC)(c3cc4c(cc3OC)N(C=O)[C@H]3[C@@](O)(C(=O)OC)[C@H](OC(C)=O)[C@]5(CC)C=CCN6CC[C@]43[C@@H]65)C2)C1 [Vincristine sulfate]

- Avg. % EMA+ (0.125 μg/ml): 2.3%
- Avg. % M (0.125 μg/ml): 1.6%
- Avg. % MN (0.125 μg/ml): 0.8%
- Avg. % RS (0.125 μg/ml): 96.9%
- Avg. M as % G2/M (0.125 μg/ml): 6.1%
- Avg. % EMA+ (0.5 μg/ml): 6.4%
- Avg. % M (0.5 μg/ml): 1.6%
- Avg. % MN (0.5 μg/ml): 3.8%
- Avg. % RS (0.5 μg/ml): 71.2%
- Avg. M as % G2/M (0.5 μg/ml): 10.3%
- Avg. % EMA+ (1 μg/ml): 10.0%
- Avg. % M (1 μg/ml): 5.6%
- Avg. % MN (1 μg/ml): 14.7%
- Avg. % RS (1 μg/ml): 49.7%
- Avg. M as % G2/M (1 μg/ml): 24.9%
- Avg. % EMA+ (2 μg/ml): 12.0%
- Avg. % M (2 μg/ml): 5.4%
- Avg. % MN (2 μg/ml): 22.3%
- Avg. % RS (2 μg/ml): 43.3%
- Avg. M as % G2/M (2 μg/ml): 18.5%
Structure (SMILES): COC(=O)Nc1nc2ccccc2[nH]1 [Carbendazim]
